What was measured:
B. subtilis 168 [1] = assay: fitness (endpoint OD595 vs no drug) (fraction); higher = more growth
How it was run: (§1)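 Cultures at OD595 0.01 were dispensed into 384-well plates in TSB, LB Lennox or CY and incubated at 37 °C. Every 30 min for 14 h, OD595 was read and corrected by the first reading. Fitness is the optical density at entry into stationary phase relative to the robust mean of no-drug control wells, capped at 1.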

S. aureus DSM 20231 [2] = assay: as above
How it was run: as §1

S. pneumoniae D39V [3] = assay: as above
How it was run: as §1

B. subtilis 168 [4] = assay: Bliss interaction score (quartile over a dose matrix) (fitness difference); higher = more antagonism (negative = synergy)
How it was run: (§2)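 The Bliss score was calculated by subtracting the expected fitness, the product of single-drug values, from the observed fitness. OD595 at entry into stationary phase, over the plate's robust no-drug mean and capped at 1, served as the fitness readout. Single-drug values were inferred from combination data, and scores are summarised by quartiles across technical, biological and donor/recipient replicates.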

S. aureus DSM 20231 [5] = assay: as above
How it was run: as §2

S. aureus Newman [6] = assay: as above
How it was run: as §2

S. pneumoniae D39V [7] = assay: as above
How it was run: as §2

S. aureus Newman [8] = assay: fitness (endpoint OD595 vs no drug) (fraction); higher = more growth
How it was run: as §1
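Throughout, for Bliss interaction score (quartile over a dose matrix): first quartile when negative (synergy) and third quartile when positive (antagonism).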

CC(=O)NC[C@H]1CN(c2ccc(N3CCOCC3)c(F)c2)C(=O)O1 [Linezolid] + COc1ccc(C[C@H](N)C(=O)N[C@H]2[C@@H](O)[C@H](n3cnc4c(N(C)C)ncnc43)O[C@@H]2CO)cc1 [Puromycin]
one replicate
Conditions	fitness
B. subtilis 168 [1], first compound 0.0625 µg/mL, partner 0.39 µg/mL	0.885
B. subtilis 168 [1], first compound 0.0625 µg/mL, partner 0.78 µg/mL	0.885
B. subtilis 168 [1], first compound 0.0625 µg/mL, partner 1.56 µg/mL	0.904
S. aureus DSM 20231 [2], first compound 0.125 µg/mL, partner 3.12 µg/mL	0.824
S. aureus DSM 20231 [2], first compound 0.125 µg/mL, partner 6.24 µg/mL	0.287
S. aureus DSM 20231 [2], first compound 0.25 µg/mL, partner 3.12 µg/mL	0.344
S. aureus DSM 20231 [2], first compound 0.25 µg/mL, partner 6.24 µg/mL	0.118
S. aureus DSM 20231 [2], first compound 0.5 µg/mL, partner 3.12 µg/mL	0.0742
S. aureus DSM 20231 [2], first compound 0.5 µg/mL, partner 6.24 µg/mL	0.0788
S. aureus DSM 20231 [2], first compound 1 µg/mL, partner 0.39 µg/mL	0.0293
S. aureus DSM 20231 [2], first compound 1 µg/mL, partner 0.78 µg/mL	0.0469
S. aureus DSM 20231 [2], first compound 1 µg/mL, partner 1.56 µg/mL	0.0437
S. pneumoniae D39V [3], first compound 0.2 µg/mL, partner 1 µg/mL	0.712
S. pneumoniae D39V [3], first compound 0.2 µg/mL, partner 2 µg/mL	0.742
S. pneumoniae D39V [3], first compound 0.2 µg/mL, partner 4 µg/mL	0.608
S. pneumoniae D39V [3], first compound 0.4 µg/mL, partner 1 µg/mL	0.564
S. pneumoniae D39V [3], first compound 0.4 µg/mL, partner 2 µg/mL	0.599
S. pneumoniae D39V [3], first compound 0.4 µg/mL, partner 4 µg/mL	0.404
S. pneumoniae D39V [3], first compound 0.8 µg/mL, partner 1 µg/mL	0.181
S. pneumoniae D39V [3], first compound 0.8 µg/mL, partner 2 µg/mL	0.215
S. pneumoniae D39V [3], first compound 0.8 µg/mL, partner 4 µg/mL	0.15

fitness
Conditions	first compound 0.105 µg/mL	first compound 0.125 µg/mL	first compound 0.21 µg/mL	first compound 0.25 µg/mL	first compound 0.42 µg/mL	first compound 0.5 µg/mL
B. subtilis 168 [1], partner 0.39 µg/mL	–	0.55	–	0.0916	–	0.0287
B. subtilis 168 [1], partner 0.78 µg/mL	–	0.569	–	0.118	–	0.0397
B. subtilis 168 [1], partner 1.56 µg/mL	–	0.599	–	0.128	–	0.0443
S. aureus DSM 20231 [2], partner 0.39 µg/mL	–	0.91	–	0.595	–	0.193
S. aureus DSM 20231 [2], partner 0.78 µg/mL	–	0.849	–	0.591	–	0.209
S. aureus DSM 20231 [2], partner 1.56 µg/mL	–	0.944	–	0.578	–	0.152
S. pneumoniae D39V [3], partner 1 µg/mL	0.833	–	0.746	–	0.606	–
S. pneumoniae D39V [3], partner 2 µg/mL	0.788	–	0.685	–	0.323	–
S. pneumoniae D39V [3], partner 4 µg/mL	0.644	–	0.446	–	0.233	–

Conditions	Bliss interaction score
B. subtilis 168 [4]	0.075
S. aureus DSM 20231 [5]	-0.0587
S. aureus Newman [6]	-0.0605
S. pneumoniae D39V [7]	-0.132

CN[C@@H]1[C@H](O[C@H]2[C@H](O[C@H]3[C@H](O)[C@@H](O)[C@H](N=C(N)N)[C@@H](O)[C@@H]3N=C(N)N)O[C@@H](C)[C@]2(O)C=O)O[C@@H](CO)[C@H](O)[C@H]1O [Streptomycin] + CN[C@H](CC(C)C)C(=O)N[C@H]1C(=O)N[C@@H](CC(N)=O)C(=O)N[C@H]2C(=O)N[C@H]3C(=O)N[C@H](C(=O)N[C@H](C(=O)O)c4cc(O)cc(O)c4-c4cc3ccc4O)[C@H](O)c3ccc(c(Cl)c3)Oc3cc2cc(c3O[C@@H]2O[C@H](CO)[C@@H](O)[C@H](O)[C@H]2O[C@H]2C[C@](C)(N)[C@H](O)[C@H](C)O2)Oc2ccc(cc2Cl)[C@H]1O [Vancomycin]
fitness
Conditions	first compound 1 µg/mL	first compound 2 µg/mL	first compound 4 µg/mL	first compound 8 µg/mL
S. aureus Newman [8], partner 0.1875 µg/mL	0.959	0.941	–	–
S. aureus Newman [8], partner 0.375 µg/mL	0.952	0.946	–	–
S. aureus Newman [8], partner 0.75 µg/mL	0.978	0.944	–	–
S. pneumoniae D39V [3], partner 0.03125 µg/mL	–	0.978	0.956	0.941
S. pneumoniae D39V [3], partner 0.0625 µg/mL	–	0.921	0.969	0.913
S. pneumoniae D39V [3], partner 0.125 µg/mL	–	0.942	0.942	–
S. pneumoniae D39V [3], partner 0.25 µg/mL	–	–	0.704	0.691
S. pneumoniae D39V [3], partner 0.5 µg/mL	–	–	0.0741	0.0434

fitness, S. pneumoniae D39V [3], one replicate
Conditions	partner 0.125 µg/mL	partner 0.25 µg/mL	partner 0.5 µg/mL
first compound 2 µg/mL	–	0.422	0.0318
first compound 16 µg/mL	0.825	0.112	0.0914

Conditions	Bliss interaction score
B. subtilis 168 [4]	-0.0393
S. aureus DSM 20231 [5]	0.0918
S. aureus Newman [6]	0.055
S. pneumoniae D39V [7]	0.088

CN[C@@H]1[C@H](O[C@H]2[C@H](O[C@H]3[C@H](O)[C@@H](O)[C@H](N=C(N)N)[C@@H](O)[C@@H]3N=C(N)N)O[C@@H](C)[C@]2(O)C=O)O[C@@H](CO)[C@H](O)[C@H]1O [Streptomycin] + CN(C)c1cc(NC(=O)CNC(C)(C)C)c(O)c2c1C[C@H]1C[C@H]3[C@H](N(C)C)C(O)=C(C(N)=O)C(=O)[C@@]3(O)C(O)=C1C2=O [Tigecycline]
fitness
Conditions	partner 0.039 µg/mL	partner 0.078 µg/mL	partner 0.156 µg/mL	partner 0.65 µg/mL	partner 1.3 µg/mL	partner 2.6 µg/mL
B. subtilis 168 [1], first compound 2 µg/mL	0.974	0.985	0.968	–	–	–
S. aureus Newman [8], first compound 1 µg/mL	0.94	0.986	0.971	–	–	–
S. aureus Newman [8], first compound 2 µg/mL	0.966	0.95	0.989	–	–	–
S. pneumoniae D39V [3], first compound 2 µg/mL	–	–	–	0.96	0.973	0.891
S. pneumoniae D39V [3], first compound 4 µg/mL	–	–	–	0.968	0.989	0.962
S. pneumoniae D39V [3], first compound 8 µg/mL	–	–	–	0.88	0.938	0.914

fitness, one replicate
Conditions	partner 0.125 µg/mL	partner 0.25 µg/mL	partner 0.5 µg/mL	partner 0.65 µg/mL	partner 1.3 µg/mL	partner 2.6 µg/mL
B. subtilis 168 [1], first compound 2 µg/mL	0.98	0.955	0.951	–	–	–
B. subtilis 168 [1], first compound 4 µg/mL	0.982	0.914	≥ 1	–	–	–
B. subtilis 168 [1], first compound 8 µg/mL	0.481	0.474	0.519	–	–	–
S. pneumoniae D39V [3], first compound 16 µg/mL	–	–	–	0.866	0.81	0.829

Conditions	Bliss interaction score
B. subtilis 168 [4]	0.145
S. aureus DSM 20231 [5]	0.064
S. aureus Newman [6]	0.0427
S. pneumoniae D39V [7]	0.0816

CC(=O)NC[C@H]1CN(c2ccc(N3CCOCC3)c(F)c2)C(=O)O1 [Linezolid] + Cc1ncc([N+](=O)[O-])n1CCO [Metronidazole]
fitness, one replicate
Conditions	partner 0.625 µg/mL	partner 1.25 µg/mL	partner 2.5 µg/mL
B. subtilis 168 [1], first compound 0.0625 µg/mL	0.86	0.895	0.875
S. aureus DSM 20231 [2], first compound 1 µg/mL	0.0445	0.0462	0.042

Conditions	fitness
B. subtilis 168 [1], first compound 0.125 µg/mL, partner 0.625 µg/mL	0.648
B. subtilis 168 [1], first compound 0.125 µg/mL, partner 1.25 µg/mL	0.607
B. subtilis 168 [1], first compound 0.125 µg/mL, partner 2.5 µg/mL	0.597
B. subtilis 168 [1], first compound 0.25 µg/mL, partner 0.625 µg/mL	0.0733
B. subtilis 168 [1], first compound 0.25 µg/mL, partner 1.25 µg/mL	0.0982
B. subtilis 168 [1], first compound 0.25 µg/mL, partner 2.5 µg/mL	0.105
B. subtilis 168 [1], first compound 0.5 µg/mL, partner 0.625 µg/mL	0.0494
B. subtilis 168 [1], first compound 0.5 µg/mL, partner 1.25 µg/mL	0.0531
B. subtilis 168 [1], first compound 0.5 µg/mL, partner 2.5 µg/mL	0.0511
S. aureus DSM 20231 [2], first compound 0.125 µg/mL, partner 0.625 µg/mL	0.947
S. aureus DSM 20231 [2], first compound 0.125 µg/mL, partner 1.25 µg/mL	0.94
S. aureus DSM 20231 [2], first compound 0.125 µg/mL, partner 2.5 µg/mL	0.942
S. aureus DSM 20231 [2], first compound 0.25 µg/mL, partner 0.625 µg/mL	0.621
S. aureus DSM 20231 [2], first compound 0.25 µg/mL, partner 1.25 µg/mL	0.723
S. pneumoniae D39V [3], first compound 0.105 µg/mL, partner 1.25 µg/mL	0.866
S. pneumoniae D39V [3], first compound 0.105 µg/mL, partner 2.5 µg/mL	0.877
S. pneumoniae D39V [3], first compound 0.105 µg/mL, partner 5 µg/mL	0.841
S. pneumoniae D39V [3], first compound 0.2 µg/mL, partner 1.073 µg/mL	0.832
S. pneumoniae D39V [3], first compound 0.2 µg/mL, partner 2.145 µg/mL	0.804
S. pneumoniae D39V [3], first compound 0.2 µg/mL, partner 4.29 µg/mL	0.817
S. pneumoniae D39V [3], first compound 0.21 µg/mL, partner 1.25 µg/mL	0.776
S. pneumoniae D39V [3], first compound 0.21 µg/mL, partner 2.5 µg/mL	0.78
S. pneumoniae D39V [3], first compound 0.21 µg/mL, partner 5 µg/mL	0.753
S. pneumoniae D39V [3], first compound 0.4 µg/mL, partner 1.073 µg/mL	0.741
S. pneumoniae D39V [3], first compound 0.4 µg/mL, partner 2.145 µg/mL	0.77
S. pneumoniae D39V [3], first compound 0.4 µg/mL, partner 4.29 µg/mL	0.714
S. pneumoniae D39V [3], first compound 0.42 µg/mL, partner 1.25 µg/mL	0.663
S. pneumoniae D39V [3], first compound 0.42 µg/mL, partner 2.5 µg/mL	0.646
S. pneumoniae D39V [3], first compound 0.42 µg/mL, partner 5 µg/mL	0.63
S. pneumoniae D39V [3], first compound 0.8 µg/mL, partner 2.145 µg/mL	0.445
S. pneumoniae D39V [3], first compound 0.8 µg/mL, partner 4.29 µg/mL	0.424

Conditions	Bliss interaction score
B. subtilis 168 [4]	0.103
S. aureus DSM 20231 [5]	0.111
S. aureus Newman [6]	0.0844
S. pneumoniae D39V [7]	0.143
